Measured values published in patent US12514847B2, “Oxathiazin_dioxide for treating, preventing, inhibiting or reducing cytokine release” (Geistlich Pharma AG, priority 2019, dated 2026).

Experiments:
Human PBMCs = test: PBMC/Ramos co-culture with BLINCYTO: cytokine release; assay type: cell-based
Method: (§1) Inhibition of cytokine release by C-2250 in the presence of a bispecific CD19 T cell engager was assessed. Human PBMCs from ten donors were co-cultured with Ramos cells (a human CD19 expressing B cell line) in the presence of blinatumomab (BLINCYTO®), a T cell bispecific therapeutic, and C-2250 was added.
(§2) Co-culture was performed for 24 hours at 37° C., 5% CO2, prior to harvesting cells or tissue culture supernatant for analysis. C-2250 was used at 500, 1000, and 1500 μM concentrations and was allowed to pre-incubate with T cells prior to addition of BLINCYTO®.

[1] = tested on: Raji, a human CD19 expressing target B cell line; test: CD19 CAR-T co-culture assay with Raji cells: CAR-T mediated target cell lysis; assay type: cell-based; settings: E:T ratios 5:1, 10:1, 20:1
Method: (§3) Human CD19 specific CAR-T effector cells from a donor were co-cultured with Raji, a human CD19 expressing target B cell line at different effector to target cell ratios of 5:1, 10:1, and 20:1 in the presence of C-2250. Co-culture was performed for 6 hours or 24 hours at 37° C., 5% CO2 prior to harvesting cells for CAR-T mediated target cell lysis or tissue culture supernatant for cytokine analysis. C-2250 was used at 500, 1000, and 1500 μM concentrations and was allowed to pre-incubate with CAR-T cells prior to addition of tumor target cells.
FIGS. 2A-2C show the results of CD19 CAR-T co-culture assay with CD-19 tumor cells (Raji) at 6 hours, CAR-T mediated tumor target cell in the present of increasing concentrations of C-2250 are shown (E:T ratios of 5:1, 10:1, and 20:1 are shown in FIGS. 2A, 2B, and 2C, respectively). FIGS. 3A-3C show the results of CD19 CAR-T co-culture assay with CD-19 tumor cells (Raji) at 24 hours, CAR-T mediated tumor target cell in the present of increasing concentrations of C-2250 are shown (E:T ratios of 5:1, 10:1, and 20:1 are shown in FIGS. 3A, 3B, and 3C, respectively).

[2] = tested on: primary human peripheral blood mononuclear cells (PBMCs); test: LPS stimulated human PBMC cytokine release; assay type: cell-based; settings: LPS 1 ng/ml, 48 hours; C-2250 500, 1000, 1500 μM; five donors
Method: The ability of C-2250 to suppress in vitro cytokine release from primary human peripheral blood mononuclear cells (PBMCs) was assessed. Lipopolysaccharide (LPS) inhibition by C-2250 was determined. PBMCs from five individual, normal healthy human volunteers were incubated with C-2250, followed by LPS stimulation for 48 hours. Detection of three different cytokines was performed using an antibody capture bead-based kit and flow cytometric analysis.
Cryopreserved PBMCs from five healthy human donors (IQ Biosciences, Catalog #I QB-PBMC103) were thawed and cultured in RPMI 1640 medium (Gibco RPMI-1640 Medium (ATCC, Catalog #30-2001) supplemented with 10% FCS, 2 mM L-glutamine, 100 IU/mL penicillin, 100 μg/mL streptomycin, 1 mM sodium pyruvate (all from ThermoFisher) with viability >85% as determined automated cell counter (Countess II FL Automated Cell Counter; ThermoFisher; Catalog #AMQAF1000) prior to experiments. For C-2250, a 73 mM stock was prepared in sterile Lactated Ringer's Solution less than two hours prior to the start of the assay by adding 100 mg C-2250 into 10 mL Lactated Ringer's Solution. Prior to use in the assay, the pH of the solution was adjusted to 7.3. 100 μl of PBMCs at 1.0×10^7 cells/mL were washed and re-suspended in tissue culture medium containing a fixed concentration (1 ng/ml) of LPS from E. coli, serotype 0111:B4. LPS stimulation was performed for 48 hours at 37° C., 5% CO2 prior to harvesting tissue culture supernatant for cytokine analysis. C-2250 was used at 500, 1000, and 1500 μM concentrations.
Each symbol represents the mean value of triplicate analysis of a single donor. Each bar per treatment group represents the mean value of all donors where the triplicate value of each donor is averaged.

[3] = Solubility in water / isotonicity; assay type: physicochemical
[4] = tested on: Ramos cells (a human CD19 expressing B cell line); test: PBMC/Ramos co-culture with BLINCYTO: target cell cytotoxicity; assay type: cell-based; settings: 24 hours
Method: as §1, §2

[5] = tested on: Human CD19 specific CAR-T effector cells; test: CD19 CAR-T co-culture assay with Raji cells: cytokine release; assay type: cell-based
Method: as §3

[6] = tested on: CAR T cell-induced severe or life-threatening CRS; settings: two cohorts; adults and pediatric patients 2 years and older; cited from earlier work
[7] = C-2250 500, 1000, 1500 μM with BLINCYTO 100 ng/ml, 24 hours
[8] = E:T ratios 5:1, 10:1, 20:1, C-2250 500, 1000, 1500 μM

Compound | BLINCYTO T-cell mediated IFN-γ cytokine release (Human PBMCs; [7]) | BLINCYTO T-cell mediated IL-1β cytokine release (Human PBMCs; [7]) | BLINCYTO T-cell mediated IL-2 cytokine release (Human PBMCs; [7]) | BLINCYTO T-cell mediated IL-6 cytokine release (Human PBMCs; [7]) | BLINCYTO T-cell mediated TNF-α cytokine release (Human PBMCs; [7]) | release of all of the tested cytokines (Human PBMCs; with BLINCYTO, summary statement) | CD19 CAR-T mediated CD19+ tumor target cell cytotoxicity ([1]; 6 hours) | CD19 CAR-T mediated CD19+ tumor target cell cytotoxicity ([1]; 24 hours) | inhibition of IL-1β cytokine release [2] | inhibition of IL-6 cytokine release [2] | inhibition of TNF-α cytokine release [2] | concentration of isotonic solution [3] [%] | solubility in water ([3]; no PVP necessary) | BLINCYTO mediated CD19+ tumor target cell cytotoxicity ([4]; C-2250 500, 1000, 1500 μM with BLINCYTO 100 ng/ml) | tumor target cytotoxicity in the absence of BLINCYTO ([4]; no BLINCYTO, PBMC/Ramos co-culture) | cytokine release (including IL-1β, IL-6, TNF-α, and IFN-γ cytokines) ([5]; CAR-T/Raji co-culture, summary statement) | CD19 CAR-T cell mediated IFN-γ cytokine release [5, 8] | CD19 CAR-T cell mediated IL-2 cytokine release [5, 8] | CD19 CAR-T cell mediated TNF-α cytokine release [5, 8] | response rates [6]
O=S1(=O)CCOCN1 [C-2250, Tetrahydro1,4,5-oxathiazin-4-dioxide] | reduced | reduced | reduced | reduced | reduced | reduced | does not abrograte | does not abrograte | dose-dependent inhibition | dose-dependent inhibition | dose-dependent inhibition | 3.2 | very soluble | did not reduce | increased | shuts down | reduces | reduces | reduces | 
tocilizumab: monoclonal antibody blocking the interleukin-6 (IL-6) receptor |  |  |  |  |  |  |  |  |  |  |  |  |  |  |  |  |  |  |  | 53%-69%
